Test results reported in publication PMC12096834, “Antimicrobial peptide plectasin recombinantly produced in Escherichia coli disintegrates cell walls of gram-positive bacteria, as proven by transmission electron and atomic force microscopy” (Journal of Bacteriology, 2025).
Values after ≈ are worked out from the molar mass of the structure shown.

How the values were obtained:
Test in all cases: Antimicrobial activity assay (broth microdilution MIC)
Format in all cases: cell-based
[1] = system: Staphylococcus aureus DSM 2569 (ATCC 29213); settings: 18 hours
Text: (§1) The test panel included four gram-positive and four gram-negative bacterial strains, which were selected based on EUCAST recommendations and are commonly used in quality control for pathogen testing. Specifically, the test panel comprised the following four gram-positive strains: Staphylococcus aureus DSM 2569 (ATCC 29213), Streptococcus pneumoniae DSM 24048 (ATCC 49619), Listeria monocytogenes DSM 20600 (ATCC 15313), and Enterococcus faecalis DSM 2570 (ATCC 29212). The gram-negative strains included the following: Pseudomonas aeruginosa DSM 1117 (ATCC 27853), Escherichia coli DSM 1103 (ATCC 25922), Escherichia coli BL21(DE3) DSM 102052 (ATCC BAA-1025-B2), and Escherichia coli HMS174 DSM 5932 (ATCC 47011). These strains were obtained from the German Collection of Microorganisms and Cell Cultures GmbH (DSMZ, Leibnitz Institute, Braunschweig, Germany). The strains were maintained in cryo-stocks containing 20% glycerol at a temperature of −80°C. When needed, all gram-negative strains were streaked on MH-agar (Oxoid, Hampshire, UK) and all gram-positive strains on TSYE-agar, with the exception of the Listeria monocytogenes strain, for which BHI-agar was used. All strains were incubated overnight at 35°C.
(§2) The plates were made fresh on the day of the assay by first adding 50 µL of sterile water (for the gram-positive strains) or PBS buffer pH 7.4 (for the gram-negative strains) into the wells of the first to 11th column of a polystyrene 96-well plate (Greiner, 655161, Kremsmünster, Austria). An ampicillin stock solution (6,400 µg/mL) was prepared and diluted in sterile water to obtain a final ampicillin solution of 64 µg/mL. Purified plectasin, 100 µL of ampicillin solution, CASPON-plectasin, and sterile water for the negative control were each dispensed into two wells of the 12th microtiter plate column and diluted twofold from the 11th to the second column by transferring 50 µL per well of the previous column into the next one (in the end, 50 µL of the 2nd was discarded) to obtain the ranges of 0.064–64 µg/mL for ampicillin, 32–32,768 µg/mL for CASPON-plectasin, and 0.5–512 µg/mL (Streptococcus pneumoniae and Staphylococcus aureus), 1–1,024 µg/mL (Enterococcus faecalis and Listeria monocytogenes), or 4–4,096 µg/mL (gram-negative strains) for plectasin.
(§3) Bacterial inocula were prepared by suspending colonies from incubated plates described above with 3 mL 0.85% NaCl solution to obtain a turbidity corresponding to McFarland standard 0.5. The inoculated saline suspensions (1–2 × 10^8 CFU/mL) were diluted 1:100 in double concentrated MH- (all gram-negative strains, Staphylococcus aureus, and […]) or MHF- (Streptococcus pneumoniae, Listeria monocytogenes; MH-broth with 5% lysed horse blood and 20 mg/L ß-NAD) broth to obtain approximately […]. Fifty microliters of the diluted inoculum was added to the wells of the prepared microdilution plate, resulting in the final plectasin (0.25–256 µg/mL, 0.5–512 µg/mL, and 2–2,048 µg/mL), CASPON-plectasin (16–16,384 µg/mL), and ampicillin (0.032–32 µg/mL) concentrations and approximately […]. The wells of the negative control were inoculated with sterile double-concentrated MH- or MH-F broth. A schematic illustration of the plate preparation can be found in the supplementary material (Fig. S1). Plates were incubated in ambient air at 35°C for 18 hours. After incubation, the plates were shaken for 1 minute (1,000 rpm) on a platform shaker (Titramax 101, Heidolph, Schwabach, Germany) until obtaining a homogeneous suspension. The absorbances (625 nm) of each well were measured on a Tecan Spark device (Männedorf, Switzerland) and subtracted by the average absorbance of the negative control. […] The variability of the MIC results was evaluated by testing all strains against each agent in three independent assays. […]

[2] = system: Escherichia coli BL21(DE3) DSM 102052 (ATCC BAA-1025-B2)
Text: as §1, §2, §3

[3] = system: Pseudomonas aeruginosa DSM 1117 (ATCC 27853); settings: MH broth, 35°C, 18 hours, absorbance 625 nm, three independent tests, plectasin 2–2,048 µg/mL, CASPON-plectasin 16–16,384 µg/mL
Text: as §1, §2, §3

[4] = system: Escherichia coli HMS174 DSM 5932 (ATCC 47011); settings: MH broth, 35°C, 18 hours, absorbance 625 nm, three independent tests, plectasin 2–2,048 µg/mL, CASPON-plectasin 16–16,384 µg/mL
Text: as §1, §2, §3

[5] = system: Escherichia coli DSM 1103 (ATCC 25922); settings: MH broth, 35°C, 18 hours, absorbance 625 nm, three independent tests, plectasin 2–2,048 µg/mL, CASPON-plectasin 16–16,384 µg/mL
Text: as §1, §2, §3

[6] = system: Streptococcus pneumoniae DSM 24048 (ATCC 49619); settings: 18 hours
Text: as §1, §2, §3

[7] = system: Listeria monocytogenes DSM 20600 (ATCC 15313); settings: MHF broth, approx 5 × 10^4 CFU/well, 35°C, 18 hours, absorbance 625 nm, three independent assays, plectasin 0.5–512 µg/mL, CASPON-plectasin 16–16,384 µg/mL
Text: as §1, §2, §3

[8] = system: Enterococcus faecalis DSM 2570 (ATCC 29212); settings: MH broth, approx 5 × 10^4 CFU/well, 35°C, 18 hours, absorbance 625 nm, three independent assays, plectasin 0.5–512 µg/mL, CASPON-plectasin 16–16,384 µg/mL
Text: as §1, §2, §3

[9] = microdilution, extinction at 625 nm, Fig. 3

CC[C@H](C)[C@@H]1NC(=O)[C@H](CO)NC(=O)[C@H](CCCCN)NC(=O)[C@@H]2CSSC[C@@H](C(=O)N[C@@H](Cc3ccc(O)cc3)C(=O)O)NC(=O)[C@H](CCCCN)NC(=O)[C@@H]3CSSC[C@H](NC(=O)[C@H](CCC(N)=O)NC(=O)[C@H](CCSC)NC(=O)[C@H](CC(=O)O)NC(=O)[C@H](CC(=O)O)NC(=O)[C@H](CCC(=O)O)NC(=O)[C@H](CC(=O)O)NC(=O)[C@H](Cc4c[nH]c5ccccc45)NC(=O)[C@@H]4CCCN4C(=O)CNC(=O)[C@H](CC(N)=O)NC(=O)[C@@H](NC(=O)CNC(=O)[C@H](Cc4ccccc4)NC(=O)CN)CSSC[C@H](NC(=O)[C@H](Cc4ccc(O)cc4)NC(=O)CNC(=O)CNC(=O)[C@H](CCCCN)NC(=O)[C@H](Cc4ccc(O)cc4)NC(=O)CNC(=O)[C@H](CCCCN)NC1=O)C(=O)N[C@@H](C)C(=O)N[C@@H](CCCCN)C(=O)NCC(=O)NCC(=O)N[C@@H](Cc1ccccc1)C(=O)N[C@@H](C(C)C)C(=O)N3)C(=O)N[C@@H](Cc1c[nH]cn1)C(=O)N[C@@H](CC(N)=O)C(=O)N[C@@H](Cc1c[nH]cn1)C(=O)N2 [Plectasin, plectasin]
MIC ([1]; broth microdilution, MH broth, approx 5 × 10^4 CFU/well, 35°C, absorbance 625 nm, three independent assays, plectasin 0.25–256 µg/mL, CASPON-plectasin 16–16,384 µg/mL): 32 µg/mL (≈ 7.27 µM)
plectasin concentration at which a distinct gradient of extinction reduction was observed [1, 9]: 8 µg/mL
growth inhibition (no MIC could be determined) ([2]; broth microdilution, MH broth, 35°C, 18 hours, absorbance 625 nm, three independent tests, plectasin 2–2,048 µg/mL, CASPON-plectasin 16–16,384 µg/mL): no growth decline
extinction value at 625 nm (growth) at the highest plectasin concentration ([2]; increased number and altered morphology of cells (Fig. S11)): four times higher
growth inhibition (no MIC could be determined) [3]: no growth decline
growth inhibition (no MIC could be determined) [4]: no growth decline
growth inhibition (no MIC could be determined) [5]: no growth decline
MIC ([6]; broth microdilution, MHF broth (5% lysed horse blood, 20 mg/L ß-NAD), approx 5 × 10^4 CFU/well, 35°C, absorbance 625 nm, three independent assays, plectasin 0.25–256 µg/mL, CASPON-plectasin 16–16,384 µg/mL): 4 µg/mL (≈ 0.909 µM)
plectasin concentration at which a distinct gradient of extinction reduction was observed [6, 9]: 0.5 µg/mL
MIC [7]: 32 µg/mL (≈ 7.27 µM)
MIC [8]: 128 µg/mL (≈ 29.1 µM)
